From paper PMC7696216, “Bi-Functional Alginate Oligosaccharide–Polymyxin Conjugates for Improved Treatment of Multidrug-Resistant Gram-Negative Bacterial Infections” (Pharmaceutics, 2020)
Where two headings read alike, the source gives them in different places. Positions of bridges follow the written chain, without caps; N, C: chain ends. Non-standard residues stand in square brackets, D forms with d. Residues, ends and D or L forms follow the SMILES beside them. *: point of attachment. X1 = CC[C@H](C)CCCCC(=O)*; Dab = NCC[C@H](N)C(=O)O

Key:
[1] = test system: E. coli 5702; assay: MIC, broth microdilution; assay type: cell-based, Escherichia coli
Method: (§1) The minimum inhibitory concentration (MIC) of colistin (as sulphate salt) and polymyxin B and their conjugates was determined using the broth microdilution method in MH broth in accordance with standard guidelines. Test organisms were suspended in MH broth (100 µL, 5 × 10^5 colony forming units (CFU)/mL) and incubated in 96-well microtitre plates in serial two-fold dilutions of the test compounds. […] Results were expressed as mode (n = 3). […] Selective activities of the polymyxins and OligoG–polymyxin conjugates were calculated as follows:Selectivity index (SI) = IC50 (μg/mL)/MIC (μg/mL).
(§2) To study the antimicrobial efficacy of test compounds under more clinically relevant conditions, the MIC protocol was performed using AS medium instead of MH broth. The plates were incubated with resazurin as described above.

[2] = test system: P. aeruginosa MDR 301; assay type: cell-based, Pseudomonas aeruginosa
Method: as §1
(§3) In addition, alginate oligomer–colistin conjugates (3 mg/mL) were incubated in PBS at pH 7 containing bacterial alginate lyase (1 and 10 U/mL) at 37 °C for 24 h, before preparing microtitre plates as described above.
as §2

[3] = test system: P. aeruginosa R22; assay type: cell-based, Pseudomonas aeruginosa; details: for MIC: resazurin read-out
Method: as §1
(§4) To account for turbidity caused by mucin, resazurin dye solution (30 µL, 0.01% w/v in dH2O) was added to each well and incubated for a further 3 h at 37 °C. Colour changes were observed and recorded.

[4] = cited from earlier work
Method: In a clinical setting, binding of colistin to sputum biomolecules (e.g., mucin) in the airways could negatively impact antibiotic effectiveness and availability. […] A four-fold increase in the MIC of colistin was also reported when the assay was conducted in AS medium instead of MH broth, thought to be caused by bacterial growth disruption, structural modifications of lipopolysaccharides or direct colistin–mucin interactions. Alt ...

[5] = test system: P. aeruginosa NH57388A; assay: MIC, broth microdilution; assay type: cell-based, Pseudomonas aeruginosa
Method: as §1, §2

[6] = test system: K. pneumoniae IR25; assay type: cell-based, Klebsiella pneumoniae; details: for MIC: resazurin read-out
Method: as §1, §4

[7] = MTT cytotoxicity assay; assay type: cell-based; details: human, HK-2 cells, 72 h incubation, 0–1 mg/mL polymyxin base, ±SEM (n = 18), read-out: Half maximal inhibitory concentration (IC50), cytotoxicity
Method: A 3-(4,5-dimethylthiazol-2-yl)-2,5-diphenyltetrazolium bromide (MTT) assay was used to measure cell viability and proliferation of HK-2 cells. Cells were seeded into sterile 96-well microtitre plates at 1 × 10^5 cells/mL (100 µL/well) and allowed to adhere for 24 h at 37 °C. The following day, the old medium was replaced with test compounds (0–1 mg/mL polymyxin base) dissolved in filter-sterilised K-SFM. After 67 h incubation at 37 °C, filter-sterilised MTT solution (20 µL of a 5 mg/mL solution in PBS) was added to each well and incubated for a further 5 h at 37 °C. Finally, the medium was carefully removed, and the formazan crystals were solubilised in DMSO (100 µL) for 30 min. Absorbance was measured at 550 nm using a Fluostar Omega microplate reader. […] Data are expressed as mean ± SEM (n = 18).

[8] = test system: A. baumannii MDR ACB; assay type: cell-based, Acinetobacter baumannii; details: for MIC: resazurin read-out
Method: as §1, §4

[9] = test system: P. aeruginosa NCTC 10662; assay type: cell-based, Pseudomonas aeruginosa; details: SI = IC50 (µg/mL, HK-2)/MIC (µg/mL)
Method: as §1

[10] = test system: A. baumannii 7789; assay type: cell-based, Acinetobacter baumannii
Method: as §1, §3, §2

[11] = test system: K. pneumoniae KP05 506; assay type: cell-based, Klebsiella pneumoniae
Method: as §1, §3, §2

[12] = test system: E. coli AIM-1; assay: MIC, broth microdilution; assay type: cell-based, Escherichia coli; details: broth microdilution, MH broth, 5 × 10^5 CFU/mL, 16–20 h, mode (n = 3)
Method: as §1, §3

[13] = test system: E. coli IR57; assay type: cell-based, Escherichia coli
Method: as §1, §4, §2

[14] = test system: range of Gram-negative bacterial pathogens; assay: MIC and selectivity index across the panel of isolates; assay type: cell-based; details: mean SI over the isolates of Table S4
Method: as §1

[15] = test system: E. coli PN21; assay: MIC, broth microdilution; assay type: cell-based, Escherichia coli; details: SI = IC50 (µg/mL, HK-2)/MIC (µg/mL)
Method: as §1

[16] = test system: E. coli NCTC 10418; assay type: cell-based, Escherichia coli; details: SI = IC50 (µg/mL, HK-2)/MIC (µg/mL)
Method: as §1

[17] = AS (artificial sputum) medium, resazurin read-out
[18] = MH broth (Table S7 comparison with AS medium)
[19] = MH broth + porcine stomach (type II) mucin 0.2% w/v
[20] = MH broth + porcine stomach (type II) mucin 2% w/v

`CC[C@H](C)CCCCC(=O)N[C@@H](CCN)C(=O)N[C@H](C(=O)N[C@@H](CCN)C(=O)N[C@H]1CCNC(=O)[C@H]([C@@H](C)O)NC(=O)[C@H](CCN)NC(=O)[C@H](CCN)NC(=O)[C@H](CC(C)C)NC(=O)[C@@H](Cc2ccccc2)NC(=O)[C@H](CCN)NC1=O)[C@@H](C)O` [Polymyxin B, polymyxin B] (X1-[Dab]T[Dab][Dab][Dab][dF]L[Dab][Dab]T; lactam 4-C (inferred); N-terminus assumed) showed an MIC [1, 17] of 0.25 μg/mL Drug Base, an MIC [1, 18] of 0.063 μg/mL Drug Base and an MIC [2, 17] of 4 μg/mL Drug Base. The MIC [2, 18] was 0.5 μg/mL Drug Base, the “Selectivity index (SI) value” ([2]; SI = IC50 (µg/mL, HK-2)/MIC (µg/mL), P. aeruginosa MDR 301) was 22 and the MIC [3, 19] was 4 μg/mL Drug Base. The MIC [3, 20] was 64 μg/mL Drug Base, the MIC ([3]; MH broth, mucin 0%) was 0.25 μg/mL Drug Base and the “Selectivity index (SI) value” ([3]; SI = IC50 (µg/mL, HK-2)/MIC (µg/mL), P. aeruginosa R22) was 44. The “increase in MIC values when mucin was added to the bacterial culture medium” value [4] was > 100 fold, the MIC [5, 17] was 1 μg/mL Drug Base and the MIC [5, 18] was 0.25 μg/mL Drug Base. The “Selectivity index (SI) value” ([5]; SI = IC50 (µg/mL, HK-2)/MIC (µg/mL), P. aeruginosa NH57388A) was 44, the MIC [6, 19] was 4 μg/mL Drug Base and the MIC [6, 20] was 64 μg/mL Drug Base. The MIC ([6]; MH broth, mucin 0%) was 0.125 μg/mL Drug Base, the “Selectivity index (SI) value” ([6]; SI = IC50 (µg/mL, HK-2)/MIC (µg/mL), K. pneumoniae IR25) was 88 and the IC50 at 72 h [7] was 11 mg/L. For the same compound, the MIC [8, 19] was 1 μg/mL Drug Base, the MIC [8, 20] was 16 μg/mL Drug Base and the MIC ([8]; MH broth, mucin 0%) was 0.125 μg/mL Drug Base. The “Selectivity index (SI) value” ([8]; SI = IC50 (µg/mL, HK-2)/MIC (µg/mL), A. baumannii MDR ACB) was 88, the “Selectivity index (SI) value” [9] was 175 and the MIC [10, 17] was 0.5 μg/mL Drug Base. The MIC [10, 18] was 0.125 μg/mL Drug Base, the “Selectivity index (SI) value” ([10]; SI = IC50 (µg/mL, HK-2)/MIC (µg/mL), A. baumannii 7789) was 88 and the MIC [11, 17] was 1 μg/mL Drug Base. For the same compound, the MIC [11, 18] was 0.125 μg/mL Drug Base, the “Selectivity index (SI) value” ([11]; SI = IC50 (µg/mL, HK-2)/MIC (µg/mL), K. pneumoniae KP05 506) was 88 and the MIC [12] was <0.004 μg/mL Drug Base. It also gave an MIC [13, 17] of 0.125 μg/mL Drug Base, an MIC [13, 18] of 0.5 μg/mL Drug Base and an MIC ([13]; MH broth + porcine stomach (type II) mucin 0.2% w/v, resazurin read-out) of 1 μg/mL Drug Base. The MIC ([13]; MH broth + porcine stomach (type II) mucin 2% w/v, resazurin read-out) was 4 μg/mL Drug Base, the MIC ([13]; MH broth, mucin 0%, resazurin read-out) was 0.5 μg/mL Drug Base and the “Selectivity index (SI) value, Mean” value [14] was 66. The “Selectivity index (SI) value” [15] was 3 and the “Selectivity index (SI) value” [16] was 1.
